This is an account of results in patent publication US8435549B2, “Halogen alkoxy spirocyclic tetramic and tetronic acid derivatives” (Bayer Cropscience AG, priority 2007, dated 2013).

Assay type in all cases: in vivo
For experiment [1], the system named is cotton aphid (Aphis gossypii). The experiment is described as follows: Enhancement of activity by ammonium/phosphonium salts, Aphis gossypii test. The following applies: Aphis gossypii on cotton, active compound 4 ppm. On the procedure: To produce a suitable preparation of active compound, 1 part by weight of active compound is mixed with the stated amounts of solvent and emulsifier, and the concentrate is diluted with emulsifier-containing water to the desired concentration. For application with ammonium or phosphonium salts, these are added to the spray liquor in a concentration of 1000 ppm.
Cotton plants (Gossypium hirsutum) which are heavily infested by the cotton aphid (Aphis gossypii) are treated by spraying to runoff point with the active compound preparation of the desired concentration.
After the desired period of time, the kill in % is determined. 100% means that all the aphids have been killed; 0% means that none of the aphids have been killed.

Experiment [2] deals with green peach aphid (Myzus persicae). Kind of experiment: Enhancement of activity by ammonium/phosphonium salts in combination with penetrants, Myzus persicae test. The protocol:
To produce a suitable preparation of active compound, 1 part by weight of active compound is mixed with the stated amounts of solvent and emulsifier, and the concentrate is diluted with water to the desired concentration. For application with ammonium or phosphonium salts and penetrants (rapeseed oil methyl ester 500 EW) these are added to the spray liquor in each case in a concentration of 1000 ppm.
(§1) Bell pepper plants (Capsicum annuum) which are heavily infested by the green peach aphid (Myzus persicae) are treated by spraying to runoff point with the active compound preparation of the desired concentration. After the desired period of time, the kill in % is determined. 100% means that all animals have been killed; 0% means that none of the animals have been killed.

The test system is the same in experiment [3]. Kind of experiment: Enhancement of activity by ammonium/phosphonium salts, Myzus persicae test. The following applies: Myzus persicae on bell pepper, active compound 4 ppm. On the procedure: To produce a suitable preparation of active compound, 1 part by weight of active compound is mixed with the stated amounts of solvent and emulsifier, and the concentrate is diluted with water to the desired concentration. For application with ammonium or phosphonium salts, these are added to the spray liquor in a concentration of 1000 ppm.
as §1

As for `Cc1cc(Cl)cc(C)c1C1=C(O)[C@]2(CC[C@H](OCC(F)(F)F)CC2)NC1=O` [Example I-1-a-1], the “Kill rate/% after 6 days” value worked out at 95% in experiment [1] (+AS (1000 ppm)); 25% in experiment [1] (without AS); 0% in experiment [2] (0.8 ppm, +AS (1000 ppm)); 0% in experiment [2] (0.8 ppm, +RME (1000 ppm)); 95% in experiment [2] (0.8 ppm, +RME + AS (1000 ppm each)); 0% in experiment [2] (0.8 ppm, no additive). In addition, the “Kill rate/% after 6 days” value was determined as 90% in experiment [2] (4 ppm, +AS (1000 ppm)); 99% in experiment [2] (4 ppm, +RME (1000 ppm)); 100% in experiment [2] (4 ppm, +RME + AS (1000 ppm each)); 95% in experiment [2] (4 ppm, no additive).
In the case of `Cc1cc(C)c(C2=C(O)C3(CCC(OCC(F)(F)F)CC3)NC2=O)c(C)c1` (mixture of isomers) [Example I-1-a-5], the “Kill rate/% after 6 days” value in experiment [3] (+AS (1000 ppm)) is listed as 99%; in experiment [3] (without AS), 5%.
